Our source for the IC50 values is patent US20260000781A1, “FC CONJUGATES INCLUDING AN INHIBITOR OF CD73 AND USES THEREOF” (Cidara Therapeutics, Inc., priority 2022, published 2026).

Like-named read-outs stand apart in the source and are kept apart here.

Test [1] concerns the target T1, CD73 on EMT6 mouse mammary carcinoma cells (Mus musculus, UniProt Q61503).
T1 construct: host or cells: EMT6
T1 sequence (Q61503 29-551): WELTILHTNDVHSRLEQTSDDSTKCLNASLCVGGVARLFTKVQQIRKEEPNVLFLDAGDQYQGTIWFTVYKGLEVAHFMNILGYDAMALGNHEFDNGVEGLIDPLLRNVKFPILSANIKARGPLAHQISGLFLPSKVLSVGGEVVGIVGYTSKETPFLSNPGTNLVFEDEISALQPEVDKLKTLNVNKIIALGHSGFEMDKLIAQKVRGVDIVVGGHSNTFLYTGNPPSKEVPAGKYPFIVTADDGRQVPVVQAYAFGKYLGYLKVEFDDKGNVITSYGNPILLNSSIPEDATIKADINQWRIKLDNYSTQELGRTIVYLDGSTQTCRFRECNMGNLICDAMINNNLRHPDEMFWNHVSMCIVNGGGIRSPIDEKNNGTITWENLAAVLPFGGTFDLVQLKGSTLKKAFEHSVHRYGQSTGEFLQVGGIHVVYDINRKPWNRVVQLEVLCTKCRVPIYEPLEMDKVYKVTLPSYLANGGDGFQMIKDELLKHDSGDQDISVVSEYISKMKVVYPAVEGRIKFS
Briefly: CD73 enzyme inhibition assay with mouse EMT6 cells (PiColorLock). Type of test: cell-based. The following applies: mouse EMT6 cancer cells, AMP 100 μM. As for the experimental part: (§1) The cell-based CD73 enzyme inhibition assay was performed in a 96-well plate format using the Phosphate Assay Kit—PiColorLock™ in accordance with the manufacturer's instructions (cat no. 270004, Abcam). AMP is enzymatically converted by CD73 to adenosine and phosphate. Therefore, adenosine concentrations can be inferred from phosphate concentrations in 1:1 ratio. Both EMT6 mouse mammary carcinoma cells (ATCC CRL-2755) and human peripheral blood mononuclear cells (PBMC; Stemcell Technologies cat no. 70025, lot no. 2202401007) were assayed. The EMT6 cells were washed three times with a phosphate free CD73 buffer, detached from flasks using a cell scraper, and seeded at 3×10^3 cells/well in 100 μL into 96-well tissue culture-treated plates. Human PBMC cells were washed three times by suspending in phosphate free CD73 buffer and pelleting in a centrifuge at 125×g for 10 min at room temperature and seeded at 5×10^5 cells/well in 100 μL into 96-well tissue culture-treated plates. […] AMP was added at 100 μM and cells, test articles, and AMP were incubated together for 3 h and 24 h at 37° C., 5% CO2. The CD73 activity in the supernatant was quantified using the PiColorLock Phosphate assay kit. Colorimetric detection reagent was added and the free phosphate from the CD73 reaction was measured by reading the absorbance at 635 nm using the EnSpire multimode plate reader (PerkinElmer). Wells without test inhibitor (CD73 positive control) were included on each plate. Wells without test inhibitor and cells (background) were subtracted from all wells. The percent CD73 inhibition versus inhibitor concentration was plotted using GraphPad Prism Version 8 and IC50's calculated using nonlinear regression analysis (Sigmoidal, 4 PL).

The target of test [2] is T2, CD73 on human PBMCs (Homo sapiens, UniProt P21589).
T2 construct: 72400 (T cells); host or cells: human PBMCs / human T cells
T2 sequence (P21589 27-549): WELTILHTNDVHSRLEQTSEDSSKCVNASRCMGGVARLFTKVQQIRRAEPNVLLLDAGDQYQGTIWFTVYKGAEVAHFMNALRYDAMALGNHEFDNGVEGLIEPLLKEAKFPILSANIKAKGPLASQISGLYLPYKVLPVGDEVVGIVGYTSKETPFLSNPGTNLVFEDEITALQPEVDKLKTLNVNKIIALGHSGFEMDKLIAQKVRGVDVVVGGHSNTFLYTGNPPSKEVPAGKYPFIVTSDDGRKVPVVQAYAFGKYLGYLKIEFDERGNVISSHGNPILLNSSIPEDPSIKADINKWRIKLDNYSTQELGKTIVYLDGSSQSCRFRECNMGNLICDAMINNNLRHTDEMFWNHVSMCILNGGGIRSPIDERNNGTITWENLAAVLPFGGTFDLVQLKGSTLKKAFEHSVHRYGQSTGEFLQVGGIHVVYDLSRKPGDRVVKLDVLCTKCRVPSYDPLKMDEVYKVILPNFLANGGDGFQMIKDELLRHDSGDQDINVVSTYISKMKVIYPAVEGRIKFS
The test is described as follows: CD73 enzyme inhibition assay with human PBMCs (PiColorLock). Format: cell-based. To be noted: AMP 100 μM. On the procedure: The cell-based CD73 enzyme inhibition assay was performed in a 96-well plate format using the PiColorLock phosphate assay kit in accordance with the manufacturer's instructions (Abcam cat no. 270004). 4T1 mouse cells are a model for stage IV human breast cancer (ATCC CRL-2539) and human peripheral blood mononuclear cells (PBMCs; StemCell Technologies cat no. 70025) from three different donors were assayed. 4T1 cells were washed three times with a phosphate-free CD73 buffer (Lawson et al., 2020), detached from tissue-culture flasks using a cell scraper, and seeded at 5×10^3 cells/well into 96-well tissue culture-treated plates. Human PBMCs were washed three times with phosphate-free CD73 buffer at 125×g for 10 min at room temperature and seeded at 1×10^5 cells/well into 96-well tissue culture-treated plates. Test articles were tested from 0.001 nM to 1,000 nM (4T1 cells) or 0.0001 nM to 100 nM (PBMCs) and incubated with cells for 30 min at 37° C., 5% CO2. AMP (100 μM final concentration) was added to cells and test articles, and the reaction incubated for 3 h and 24 h at 37° C., 5% CO2. The conversion of AMP to adenosine and phosphate in cell-free supernatant was quantified using the PiColorLock kit. Colorimetric detection reagent was added and the phosphate production was measured by reading the absorbance at 635 nm with the EnSpire multimode plate reader (PerkinElmer). Cells without test article (positive control) were included on each plate. Control wells without test article and cells (background) were subtracted from all wells. Percent CD73 inhibition versus inhibitor concentration was plotted using GraphPad Prism Version 8 and IC50's calculated using nonlinear regression analysis (Sigmoidal, 4 PL).
as §1

Test [3] has as its target T3, CD73 (Homo sapiens, UniProt P21589).
T3 sequence (P21589 27-549): T2 sequence (P21589 27-549)
Briefly: Cell-free CD73 inhibition IC50 (nM). The text has this: Table printed on a drawing sheet, FIG. 24
Head of the field: Cell-free CD73 inhibition IC50 (nM)
Where the first naming reader finds the target: head: Cell-free CD73 inhibition IC50 (nM)

The mark [4] stands for this setting: read-out: 3 h median IC50 [nM] (range), three unique PBMC donors, 3 h.
Setting [5] is: three unique PBMC donors, 24 h, read-out: 24 h median IC50 [nM] (range).

What is called IC50 is the midpoint of a concentration-inhibition curve. As to `C[C@H](Nc1cc(Cl)nc2c1cnn2[C@@H]1O[C@H](COP(=O)(O)CP(=O)(O)O)[C@@H](O)[C@H]1O)c1ccccc1F` [AB680], the IC50 in test [1] (3 h IC50 [nM], 3 h) turned out to be 1.06 nM; in test [1] (24 h, read-out: 24 h IC50) it was 2.29 nM.

Turning to `COC[C@](CO)(OC[C@H]1O[C@@H](n2ncc3c(NC4CCCC4)nc(Cl)nc32)[C@H](O)[C@@H]1O)P(=O)(O)O` [OP-5244], the IC50 in test [2] (human PBMCs, 24 h (Table 18), read-out: 24 h IC50) came out at 0.28 nM; in test [2] (read-out: 3 h IC50, human PBMCs, 3 h (Table 18)) it was 0.011 nM; in test [2] (setting [4]), 0.07 nM; in test [2] (setting [5]) it was 0.15 nM; in test [1] (24 h, read-out: 24 h IC50), 0.51 nM; in test [1] (read-out: 3 h IC50, 3 h) it was 0.28 nM. In test [3], this molecule displayed a half-inhibitory concentration (IC50) of 2.25 nM.

On to `O=P(O)(O)COC[C@H]1O[C@@H](n2ncc3c(N4CC5(CCc6ccccc65)C4)nc(Cl)nc32)[C@H](O)[C@@H]1O` [SHR170008], for which the IC50 in test [2] (setting [4]) came out at 1.45 nM; in test [2] (setting [5]), 2.36 nM; in test [3], 16.1 nM.
